This passage reports IC50 results from patent publication US7678913B2, “Ureas as factor Xa inhibitors” (Portola Pharmaceuticals, Inc., priority 2004, dated 2010).

The target of this test is T1, human plasma protein factor Xa (Homo sapiens, UniProt P00742).
T1 construct: measure proteolytic activity of the enzyme (factor Xa); purchased Haematologic Technologies (Essex Junction, Vt.); host or cells: human plasma
T1 sequence (P00742 235-488 limits assumed): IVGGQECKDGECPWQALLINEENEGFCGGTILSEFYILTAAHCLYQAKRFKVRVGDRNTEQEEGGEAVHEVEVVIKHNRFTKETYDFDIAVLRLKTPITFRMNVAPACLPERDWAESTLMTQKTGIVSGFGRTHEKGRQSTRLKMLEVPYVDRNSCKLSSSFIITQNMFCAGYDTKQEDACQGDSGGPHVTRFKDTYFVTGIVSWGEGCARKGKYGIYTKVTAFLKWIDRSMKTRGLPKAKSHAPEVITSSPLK
T1 sequence (P00742 41-179 partner limits assumed): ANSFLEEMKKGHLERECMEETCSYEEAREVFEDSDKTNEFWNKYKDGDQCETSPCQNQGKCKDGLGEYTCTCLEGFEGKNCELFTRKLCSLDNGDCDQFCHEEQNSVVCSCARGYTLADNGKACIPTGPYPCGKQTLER
The test can be described thus: Factor Xa IC50 determination (cleavage of chromogenic substrate S-2765). It counts as biochemical. The settings on record: fXa 1 nM, S-2765 100 μM, Tris buffered saline pH 7.4, room temperature. An excerpt:
This example illustrates methods for evaluating the compounds of the invention, along with results obtained for such assays. The in vitro and in vivo Factor Xa isoform activities of the inventive compounds can be determined by various procedures known in the art, such as a test for their ability to inhibit the activity of the Factor Xa isoform. […] The IC50 value is the concentration (in nM) of the compound required to provide 50% inhibition of Factor Xa isoform.
An in vitro assay for detecting and measuring inhibition activity against Factor Xa is as follows:
• The substrate S-2765 (Z-D-Arg-Gly-Arg-pNA.HCl) was obtained from Diapharma (West Chester, Ohio). Enzyme: • The human plasma protein factor Xa was purchased from Haematologic Technologies (Essex Junction, Vt.). Methods
All assays, which are performed in 96-well microtiter plates, measure proteolytic activity of the enzyme (factor Xa) by following cleavage of paranitroanilide substrate. The assay buffer used for proteolytic assays was Tris buffered saline (20 mM Tris, 150 mM NaCl, 5 mM CaCl2, 0.1% Bovine serum albumin (BSA), 5% Dimethly Sulfoxide (DMSO) pH 7.4). In a 96-well microtiter plate, inhibitor was serially diluted to give a range of concentrations from 0.01 nM to 10 μM (final). Duplicate sets of wells were assayed and control wells without inhibitor were included. Enzyme was added to each well,(fXa concentration=1nM), the plate was shaken for 5 seconds and then incubated for 5 minutes at room temperature. S2765 was added (100 μM final) and the plate was shaken for 5 seconds (final liquid volume in each well was 200 μl). The degree of substrate hydrolysis was measured at 405 nm on a Thermomax plate reader (Molecular Devices, Sunnyvale, Calif.) for 2 minutes. The initial velocities (mOD/min), for each range of inhibitor concentrations, were fitted to a four parameter equation using Softmax data analysis software. The parameter C, derived from the resulting curve-fit, corresponded to the concentration for half maximal inhibition (IC50).
By IC50 is commonly meant the concentration that gives 50% inhibition. Low readings indicate greater potency, high ones weaker potency. As for `CN1CCN=C1c1ccc(NC(=O)C(CC(=O)N2CCCCC2)NC(=O)Nc2ccc(Cl)cc2)cc1` (stereo not shown) [Example 64, N-[4-(1-methyl-4,5-dihydro-1H-imidazol-2-yl)phenyl]-2-(piperidin-1-ylcarbonylmethyl)-2-(4-chlorophenylaminocarbonylamino)-acetamide], the IC50 is no less than 500 nM.
As for `CN1CCN=C1c1ccc(NC(=O)C(CC(=O)N2CCOCC2)NC(=O)Nc2ccc(Cl)cc2)cc1` (stereo not shown) [Example 65, N-[4-(1-methyl-4,5-dihydro-1H-imidazol-2-yl)phenyl]-2-(morpholin-4-ylcarbonylmethyl)-2-(4-chlorophenylaminocarbonylamino)-acetamide], the figure is no less than 500 nM; as for `CN1CCN=C1c1ccc(NC(=O)C(CC(=O)N2CCCC2)NC(=O)Nc2ccc(Cl)cc2)cc1` (stereo not shown) [Example 66, N-[4-(1-methyl-4,5-dihydro-1H-imidazol-2-yl)phenyl]-2-(pyrrolidin-1-yl-carbonylmethyl)-2-(4-chlorophenylaminocarbonylamino)-acetamide], no less than 500 nM.
As for `CCOC(=O)C1CCN(C(=O)CC(NC(=O)Nc2ccc(Cl)cc2)C(=O)Nc2ccc(C3=NCCN3C)cc2)CC1` (stereo not shown) [Example 67], the figure is no less than 500 nM; as for `CN1CCN=C1c1ccc(NC(=O)C(CC(=O)N2CCCCCC2)NC(=O)Nc2ccc(Cl)cc2)cc1` (stereo not shown) [Example 68, N-[4-(1-methyl-4,5-dihydro-1H-imidazol-2-yl)phenyl]-2-(homopiperidin-1-ylcarbonylmethyl)-2-(4-chlorophenylaminocarbonylamino)-acetamide], no less than 500 nM; as for `CN1CCN=C1c1ccc(NC(=O)C(CC(=O)NCc2ccccc2)NC(=O)Nc2ccc(Cl)cc2)cc1` (stereo not shown) [Example 69, N-[4-(1-methyl-4,5-dihydro-1H-imidazol-2-yl)phenyl]-2-(benzylamino-carbonylmethyl)-2-(4-chlorophenylaminocarbonylamino)-acetamide], no less than 500 nM.
Next, `CNC(=O)CC(NC(=O)Nc1ccc(Cl)cc1)C(=O)Nc1ccc(C2=NCCN2C)cc1` (stereo not shown) [Example 70, N-[4-(1-methyl-4,5-dihydro-1H-imidazol-2-yl)phenyl]-2-(methylamino-carbonylmethyl)-2-(4-chlorophenylaminocarbonylamino)-acetamide]: 100 to 500 nM; `CN1CCN=C1c1ccc(NC(=O)C(CC(N)=O)NC(=O)Nc2ccc(Cl)cc2)cc1` (stereo not shown) [Example 71, N-[4-(1-methyl-4,5-dihydro-1H-imidazol-2-yl)phenyl]-2-(aminocarbonylmethyl)-2-(4-chlorophenylaminocarbonylamino)-acetamide]: no less than 500 nM.
`CN1CCN=C1c1ccc(N2C(=O)CC(NC(=O)Nc3ccc(Cl)cc3)C2=O)cc1` (stereo not shown) [Example 72, N-[4-(1-methyl-4,5-dihydro-1H-imidazol-2-yl)phenyl]-3-(4-chlorophenylaminocarbonylamino)-succinimide] had an IC50 of 100 to 500 nM.
`CN1CCN=C1c1ccc(NC(=O)C(CC(=O)Nc2ccccc2)NC(=O)Nc2ccc(Cl)cc2)cc1` (stereo not shown) [Example 73, N-[4-(1-methyl-4,5-dihydro-1H-imidazol-2-yl)phenyl]-2-(phenylamino-carbonylmethyl)-2-(4-chlorophenylaminocarbonylamino)-acetamide] displayed an IC50 of 100 to 500 nM.
With `CN1CCN=C1c1ccc(NC(=O)C(NC(=O)Nc2ccc(Cl)cc2)c2cccc(Cl)c2)cc1` (stereo not shown) [Example 74, N-[4-(1-methyl-4,5-dihydro-1H-imidazol-2-yl)phenyl]-2-(3-chlorophenyl)-2-(4-chlorophenylaminocarbonylamino)-acetamide], the 50% inhibitory concentration (IC50) was no more than 100 nM.
Next, `CN1CCN=C1c1ccc(NC(=O)C(NC(=O)Nc2ccc(Cl)cc2)c2ccccc2Cl)cc1` (stereo not shown) [Example 75, N-[4-(1-methyl-4,5-dihydro-1H-imidazol-2-yl)phenyl]-2-(2-chlorophenyl)-2-(4-chlorophenylaminocarbonylamino)-acetamide]: no more than 100 nM; `CN1CCN=C1c1ccc(NC(=O)C(NC(=O)Nc2ccc(Cl)cc2)c2ccc3c(c2)OCO3)cc1` (stereo not shown) [Example 76, N-[4-(1-methyl-4,5-dihydro-1H-imidazol-2-yl)phenyl]-2-(benzo-1,3-dioxl-5-yl)-2-(4-chlorophenylaminocarbonylamino)-acetamide]: no more than 100 nM; `CN1CCN=C1c1ccc(NC(=O)C(NC(=O)Nc2ccc(Cl)cc2)c2ccccc2Br)cc1` (stereo not shown) [Example 77, N-[4-(1-methyl-4,5-dihydro-1H-imidazol-2-yl)phenyl]-2-(2-bromophenyl)-2-(4-chlorophenylaminocarbonylamino)-acetamide]: no more than 100 nM.
With `O=C(Nc1ccc(Cl)cc1)NC(C(=O)Nc1ccc(-c2cc[n+]([O-])cc2)cc1)c1ccccc1Br` (stereo not shown) [Example 78, N-[4-(N-oxo-pyridin-4-yl)phenyl]-2-(2-bromophenyl)-2-(4-chlorophenylaminocarbonylamino)-acetamide], the IC50 was 100 to 500 nM.
`O=C(Nc1ccc(Cl)cc1)NC(C(=O)Nc1ccc(-c2cccc[n+]2[O-])cc1)c1ccccc1Br` (stereo not shown) [Example 79, N-[4-(N-oxo-pyridin-2-yl)phenyl]-2-(2-bromophenyl)-2-(4-chlorophenylaminocarbonylamino)-acetamide] gave a half-inhibitory concentration (IC50) of no more than 100 nM.
As for `CN(C)C(=N)c1ccc(NC(=O)C(NC(=O)Nc2ccc(Cl)cc2)c2ccccc2Br)cc1` (stereo not shown) [Example 80, N-[4-(dimethylaminoimino)phenyl]-2-(2-bromophenyl)-2-(4-chlorophenylaminocarbonylamino)-acetamide], the figure is no more than 100 nM.
As for `N=C(c1ccc(NC(=O)C(NC(=O)Nc2ccc(Cl)cc2)c2ccccc2Br)cc1)N1CCCC1` (stereo not shown) [Example 81], the figure is no more than 100 nM; as for `CC(C)N1CCC(NC(=O)C(NC(=O)Nc2ccc(Cl)cc2)c2ccccc2Br)CC1` (stereo not shown) [Example 82, N-(1-isopropylpiperidin-4-yl)-2-(2-bromophenyl)-2-(4-chlorophenylamino-carbonylamino)-acetamide], no less than 500 nM; as for `CN1CCC(N2CCN(C(=O)C(NC(=O)Nc3ccc(Cl)cc3)c3ccccc3Br)CC2)CC1` (stereo not shown) [Example 83], no more than 100 nM.
Next, `Cc1ccccc1C(NC(=O)Nc1ccc(Cl)cc1)C(=O)Nc1ccc(C2=NCCN2C)cc1` (stereo not shown) [Example 84, N-[4-(1-methyl-4,5-dihydro-1H-imidazol-2-yl)phenyl]-2-(2-methylphenyl)-2-(4-chlorophenylaminocarbonylamino)-acetamide]: no more than 100 nM; `Cc1ccccc1C(NC(=O)Nc1ccc(Cl)cc1)C(=O)Nc1ccc(-n2ccnc2CN(C)C)cc1F` (stereo not shown) [Example 85, N-[4-(2-dimethylaminomethyl-imidazol-1-yl)-2-fluorophenyl]-2-(2-methylphenyl)-2-(4-chlorophenylaminocarbonylamino)-acetamide]: no more than 100 nM.
Turning to `Cc1ccccc1C(NC(=O)Nc1ccc(Cl)cc1)C(=O)Nc1ccc(C(=N)N(C)C)cc1` (stereo not shown) [Example 86], the half-maximal inhibitory concentration (IC50) is no more than 100 nM.
As for `Cc1ccccc1C(NC(=O)Nc1ccc(Cl)cc1)C(=O)Nc1ccc(C(=N)N2CCCC2)cc1` (stereo not shown) [Example 87], the IC50 is no more than 100 nM.
In the case of `Cc1ccccc1C(NC(=O)Nc1ccc(Cl)cc1)C(=O)Nc1ccc(-c2cccc[n+]2[O-])cc1` (stereo not shown) [Example 88, N-[4-(N-oxo-pyridin-2-yl)phenyl]-2-(2-methylphenyl)-2-(4-chlorophenylaminocarbonylamino)-acetamide], the IC50 was no more than 100 nM.
